Test results from publication PMC6100568, “Novel Uridine Glycoconjugates, Derivatives of 4-Aminophenyl 1-Thioglycosides, as Potential Antiviral Compounds” (Molecules : A Journal of Synthetic Chemistry and Natural …, 2018).
“Also recorded” adds a separate entry of the source. Like-named read-outs stand apart in the source and are kept apart here.

Columns and labels:
[1] = system: HCVcc (Jc1/JFH genotype 2a); experiment: HCVcc pseudo-plaque reduction assay (IPMA) in Huh-7.5 cells; conditions: for SI (CC50/IC50): HCV (Huh-7.5 cells); for IC50: Hepatitis C virus, Huh7.5
[2] = MTT cell viability assay in non-infected Huh-7.5 cells; conditions: human
[3] = system: classical swine fever virus (CSFV); experiment: microbe, parasite or virus in culture
in vitro [4] = conditions: swine
[5] = system: classical swine fever virus (CSFV)
swine kidney (SK6) cells [6] = system: swine kidney (SK6) cells
in vitro [7] = conditions: human
[8] = system: HCV replication (Huh7-J17 replicon); experiment: HCV replicon Huh7-J17 luciferase assay; format: cell-based; conditions: Hepatitis C virus; Huh7-J17 replicon cells, 72 h; read-out: IC50 (inhibition of HCV RNA replication, luciferase activity)
[9] = system: HCV viral RNA (NS5B gene); format: cell-based, hepatitis C virus
[10] = system: HCVcc genotype 2a JFH-1 strain; experiment: SEAP reporter assay in Huh7-J20 cells, three infection models (time-of-drug addition); format: cell-based, hepatitis C virus; conditions: SEAP level; for effect on virus entry (Model 1): 1 h pre-treatment + 3 h infection with compound, then 72 h without; for antiviral activity in post-viral entry model (Model 3): compound added after 3 h infection for 72 h; for antiviral activity in full life cycle (Model 2): compound present before, during and 72 h after infection
β-1,4GalT = molecular target: T1, β-1,4GalT (Bos taurus, UniProt P08037); experiment: Bovine milk β-1,4GalT I assay (RP-HPLC, fluorescence); format: biochemical; conditions: for ability to inhibit β-1,4GalT activity: 0.8 mM
T1 construct: purchased; host or cells: bovine milk
T1 sequence (P08037 78-402 limits assumed): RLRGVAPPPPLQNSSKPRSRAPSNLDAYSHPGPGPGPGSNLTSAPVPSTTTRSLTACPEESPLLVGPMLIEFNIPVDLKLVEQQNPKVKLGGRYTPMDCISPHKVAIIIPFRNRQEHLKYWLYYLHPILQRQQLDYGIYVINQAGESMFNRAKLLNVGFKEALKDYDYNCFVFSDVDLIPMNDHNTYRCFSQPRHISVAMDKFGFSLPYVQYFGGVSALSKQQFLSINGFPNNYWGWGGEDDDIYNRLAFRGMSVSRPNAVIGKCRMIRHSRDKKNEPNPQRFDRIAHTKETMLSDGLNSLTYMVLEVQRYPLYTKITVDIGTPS

[11] = system: classical swine fever virus (CSFV); conditions: cited from earlier work
[12] = system: HCVcc (Jc1/JFH genotype 2a); conditions: cited from earlier work
Huh-7.5 cells [13] = conditions: cited from earlier work
viral genome replication = conditions: cited from earlier work
swine kidney (SK6) cells [14] = conditions: cited from earlier work
Huh7-J17 cells = conditions: human
Huh-7.5 cells [15] = experiment: MTT cell viability assay in non-infected Huh-7.5 cells; conditions: concentration reducing cell viability by 50%, mean ± S.D.

SMILES | SI (CC50/IC50) [1] | IC50 [1] | CC50 [2] | IC50 [3] | CC50 (in vitro [4]) | SI (CC50/IC50) [5] | further results
CC(=O)OC[C@H]1O[C@@H](Sc2ccc(NC(=O)CCC(=O)OC[C@H]3O[C@@H](n4ccc(=O)[nH]c4=O)[C@@H]4OC(C)(C)O[C@@H]43)cc2)[C@H](OC(C)=O)[C@@H](OC(C)=O)[C@@H]1OC(C)=O [Compound 7] | 1.4 | 281 ± 4.7 µM | 399 ± 11.4 µM | 97 ± 2 µM | 103 ± 5.9 µM | 1.1 | –
CC(=O)OC[C@H]1O[C@@H](Sc2ccc(NC(=O)CCC(=O)OC[C@H]3O[C@@H](n4ccc(=O)[nH]c4=O)[C@H](O[Si](C)(C)C(C)(C)C)[C@@H]3O[Si](C)(C)C(C)(C)C)cc2)[C@H](OC(C)=O)[C@@H](OC(C)=O)[C@@H]1OC(C)=O [Compound 8] | 4 | 4 ± 0.2 µM | 16 ± 1.1 µM | 4.5 ± 0.3 µM | 42 ± 1.9 µM | 9.3 | cytotoxicity in words (swine kidney (SK6) cells [6]): relatively toxic
CC(=O)OC[C@H]1O[C@@H](Sc2ccc(NC(=O)CCC(=O)OC[C@H]3O[C@@H](n4ccc(=O)[nH]c4=O)[C@H](O[Si](C)(C)C(C)(C)C)[C@@H]3O[Si](C)(C)C(C)(C)C)cc2)[C@H](OC(C)=O)[C@@H](OC(C)=O)[C@H]1OC(C)=O [Compound 9] | 52.4 | 4.9 ± 0.3 µM | 257 ± 5.7 µM | 4.2 ± 0.5 µM | 124 ± 6.8 µM | 29.5 | CC50 (in vitro [7]): 133 µM; inhibition of viral HCV replication (pseudo-plaques) ([1]; Huh-7.5 cells, 4–10 µM, Figure 2): dose-dependent inhibition; inhibition of CSFV propagation (size and number of pseudo-plaques) [5]: dose-dependent inhibition; IC50 [8]: 4.18 µM; amount of viral RNA (NS5B RT-PCR) [9]: significant dose-dependent inhibition; effect on virus entry (Model 1) [10]: none of the tested compounds targeted virus entry; also recorded: neither compound affected viral entry; antiviral activity in post-viral entry model (Model 3) [10]: strong antiviral activity; antiviral activity in full life cycle (Model 2) [10]: strong antiviral activity
CC(=O)OC[C@H]1O[C@@H](Sc2ccc(NC(=O)[C@H]3O[C@@H](n4ccc(=O)[nH]c4=O)[C@@H]4OC(C)(C)O[C@@H]43)cc2)[C@H](OC(C)=O)[C@@H](OC(C)=O)[C@@H]1OC(C)=O [Compound 10] | 1.7 | 154 ± 2.8 µM | 258 ± 6.2 µM | 149 ± 6.1 µM | 326 ± 11.2 µM | 2.2 | –
CC(=O)OC[C@H]1O[C@@H](Sc2ccc(NC(=O)[C@H]3O[C@@H](n4ccc(=O)[nH]c4=O)[C@@H]4OC(C)(C)O[C@@H]43)cc2)[C@H](OC(C)=O)[C@@H](OC(C)=O)[C@H]1OC(C)=O [Compound 11] | 1.6 | 167 ± 3.1 µM | 272 ± 4.5 µM | 217 ± 3.9 µM | 340 ± 9.1 µM | 1.6 | –
CC(=O)OC[C@H]1O[C@@H](Sc2ccc(NC(=O)[C@H]3O[C@@H](n4ccc(=O)[nH]c4=O)[C@H](O[Si](C)(C)C(C)(C)C)[C@@H]3O[Si](C)(C)C(C)(C)C)cc2)[C@H](OC(C)=O)[C@@H](OC(C)=O)[C@@H]1OC(C)=O [Compound 12] | 20.0 | 13.5 ± 0.7 µM | 270 ± 2.9 µM | 4 ± 0.1 µM | 56 ± 4.3 µM | – | cytotoxicity in words (swine kidney (SK6) cells [6]): relatively toxic; CC50 (in vitro [7]): 130 µM; IC50 [8]: 4.24 µM; amount of viral RNA (NS5B RT-PCR) [9]: significant dose-dependent inhibition; effect on virus entry (Model 1) [10]: none of the tested compounds targeted virus entry; also recorded: neither compound affected viral entry; antiviral activity in post-viral entry model (Model 3) [10]: strong antiviral activity; antiviral activity in full life cycle (Model 2) [10]: strong antiviral activity
CC(=O)OC[C@H]1O[C@@H](Sc2ccc(NC(=O)[C@H]3O[C@@H](n4ccc(=O)[nH]c4=O)[C@H](O[Si](C)(C)C(C)(C)C)[C@@H]3O[Si](C)(C)C(C)(C)C)cc2)[C@H](OC(C)=O)[C@@H](OC(C)=O)[C@H]1OC(C)=O [Compound 13] | 1.9 | 7.4 ± 0.2 µM | 14 ± 0.9 µM | 25 ± 0.9 µM | 49 ± 3.5 µM | 2.0 | cytotoxicity in words (swine kidney (SK6) cells [6]): relatively toxic
O=C(Nc1ccc(S[C@@H]2O[C@H](CO)[C@@H](O)[C@H](O)[C@H]2O)cc1)[C@H]1O[C@@H](n2ccc(=O)[nH]c2=O)[C@H](O)[C@@H]1O [Compound 14] | >1.1 | 444 ± 12.4 µM | > 475 µM | 241 ± 9.2 µM | 256 µM | 1.1 | CC50 (swine kidney (SK6) cells [6]; swine): 265 ± 8.6 µM; ability to inhibit β-1,4GalT activity (β-1,4GalT): demonstrated the ability of β-1,4GalT inhibition; also recorded: able to inhibit; IC50 (β-1,4GalT; inhibitor 0.1–0.8 mM, UDP-Gal donor, esculine acceptor): 330 µM
O=C(Nc1ccc(S[C@@H]2O[C@H](CO)[C@H](O)[C@H](O)[C@H]2O)cc1)[C@H]1O[C@@H](n2ccc(=O)[nH]c2=O)[C@H](O)[C@@H]1O [Compound 15] | 1.0 | 454 ± 9.8 µM | 460 ± 9.3 µM | 257 ± 6.9 µM | 278 ± 4.3 µM | 1.1 | ability to inhibit β-1,4GalT activity (β-1,4GalT): demonstrated the ability of β-1,4GalT inhibition; reduction of enzyme activity (β-1,4GalT; maximum test concentration of 0.8 mM): 10%
CC(=O)OC[C@H]1O[C@@H](Sc2ccc(NC(=O)[C@H]3O[C@@H](n4ccc(=O)[nH]c4=O)[C@H](O[Si](C)(C)C(C)(C)C)[C@@H]3O[Si](C)(C)C(C)(C)C)cn2)[C@H](OC(C)=O)[C@@H](OC(C)=O)[C@H]1OC(C)=O [II] | – | – | – | – | – | – | IC50 [11]: 6 ± 0.4 µM; SI (CC50/IC50) [11]: 25.2; IC50 [12]: 7 ± 0.4 µM; SI (CC50/IC50) [12]: 24.7; CC50 (Huh-7.5 cells [13]): 173 ± 3.2 µM; reduction of viral genome replication (viral genome replication): up to 90%; CC50 (swine kidney (SK6) cells [14]): 151 ± 3.1 µM
CC(=O)OC[C@H]1O[C@@H](Sc2ccc(NC(=O)[C@H]3O[C@@H](n4ccc(=O)[nH]c4=O)[C@H](O[Si](C)(C)C(C)(C)C)[C@@H]3O[Si](C)(C)C(C)(C)C)cn2)[C@H](OC(C)=O)[C@@H](OC(C)=O)[C@@H]1OC(C)=O [I] | – | – | – | – | – | – | IC50 [11]: 3 ± 0.1 µM; SI (CC50/IC50) [11]: 28.7; IC50 [12]: 7 ± 0.7 µM; SI (CC50/IC50) [12]: 19.3; CC50 (Huh-7.5 cells [13]): 135 ± 2.4 µM; reduction of viral genome replication (viral genome replication): up to 90%; CC50 (swine kidney (SK6) cells [14]): 86 ± 2.4 µM
CC(C)OC(=O)[C@H](C)N[P@](=O)(OC[C@H]1O[C@@H](n2ccc(=O)[nH]c2=O)[C@](C)(F)[C@@H]1O)Oc1ccccc1 [SOFOSBUVIR, sofosbuvir, reference compound] | 119.2 | 0.26 ± 0.02 µM | – | – | – | – | CC50 (Huh7-J17 cells): 23.5 µM; CC50 (Huh-7.5 cells [15]): 31 ± 1.2 µM; IC50 [8]: 0.028 µM; effect on virus entry (Model 1) [10]: no effect on virus entry; antiviral activity in post-viral entry model (Model 3) [10]: exerts its antiviral activity effect; antiviral activity in full life cycle (Model 2) [10]: exerts its antiviral activity effect
